From EP0510620A1, “Indophenol substituted oligomaltosides as substrates for alpha-amylase” (BOEHRINGER MANNHEIM GMBH, priority 1991, dated 1992)
Marks after values point to notes of the source that are not given here.

Target: T1, Human-Pankreas-α-Amylase (HPA) (Homo sapiens, UniProt P04746)
T1 sequence (P04746 16-511): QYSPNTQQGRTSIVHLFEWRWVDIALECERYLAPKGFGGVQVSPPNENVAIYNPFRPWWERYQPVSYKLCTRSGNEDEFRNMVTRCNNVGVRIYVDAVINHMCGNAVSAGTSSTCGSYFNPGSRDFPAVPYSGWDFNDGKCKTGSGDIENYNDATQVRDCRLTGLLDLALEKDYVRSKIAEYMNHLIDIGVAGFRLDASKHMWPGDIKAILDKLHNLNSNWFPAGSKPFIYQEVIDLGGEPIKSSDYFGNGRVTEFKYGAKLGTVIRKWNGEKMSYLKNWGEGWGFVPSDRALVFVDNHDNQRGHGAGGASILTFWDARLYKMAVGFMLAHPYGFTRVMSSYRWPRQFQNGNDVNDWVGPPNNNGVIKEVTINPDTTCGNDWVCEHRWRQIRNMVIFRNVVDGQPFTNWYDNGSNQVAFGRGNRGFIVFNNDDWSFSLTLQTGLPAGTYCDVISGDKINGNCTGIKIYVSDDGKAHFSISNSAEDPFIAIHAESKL
Test: direct α-amylase determination with synthetic substrates, without auxiliary enzymes (absorbance change per minute)
Assay type: biochemical
Conditions: for 400 mMol/l KSCN HPA [ΔE/min]: activator 400 mMol/l KSCN, read at the wavelength given per substrate (645 or 578 nm); for 400 mmol/l KSCN HPA relativer Wert [ΔE/min]: relative value (Beispiel 1 = 1)
From the text: Es wurde mit den in der folgenden Tabelle und in Fig. 1 aufgeführten Substraten, die Amylaseaktivität von Human-Pankreas-α-Amylase (HPA) und Human-Speichel-α-Amylase (HSA) untersucht. Die folgenden Reagenzien wurden verwendet:
Substrat (wie in der Tabelle angegeben) 49,3 mMol/l
Reagenz 1 enthält gegebenenfalls noch Aktivator, wie in Tabelle angegeben, sowie - als Hemmstoffe für die Speichel-α-Amylase- von den Zellinien NCACC 84122003 (MAK I) und NCACC 84111301 (MAK II) produzierte Antikörper. Zur Durchführung der Bestimmung wird 1,00 ml Reagenz 1 mit 0,02 ml der Probe gemischt und auf 37°C temperiert. Anschließend wird 0,10 ml Reagenz 2 zugegeben, gemischt und nach 1,2 und 3 Minuten die Extinktion bei der jeweiligen Meßwellenlänge (s. Tabelle) abgelesen. Es wird der Mittelwert der Extinktionsdifferenz/Minute gebildet.
Die Endkonzentrationen im Testansatz betragen:
Als Probe wird Humanpankreas-Amylase (HPA) verwendet. Die Messung erfolgt bei 37°C bei der jeweils angegebenen Meßwellenlänge. Die Ergebnisse sind der Tabelle zu entnehmen. Tabelle
Verwendung der gemäß Beispiel 4 und Beispiel 5 hergestellten Substanzen als Substrate zur direkten α-Amylase-Bestimmung.
Es wird analog zu Beispiel 2 vorgegangen.

[1] = MES buffer pH 6,0, 37°C, substrate 4,44 mmol/l
[2] = measured at pH 8,0, 595 or 573 nm

## O=C1C(Cl)=CC(=Nc2ccc(O[C@H]3O[C@H](CO)[C@@H](O[C@H]4O[C@H](CO)[C@@H](O[C@H]5O[C@H](CO)[C@@H](O)[C@H](O)[C@H]5O)[C@H](O)[C@H]4O)[C@H](O)[C@H]3O)cc2)C=C1Cl [2,6-Dichlor-indophenylα-maltotriosid, reference compound]
[1]
  400 mMol/l KSCN HPA [ΔE/min]: 0 ΔE/min

## CC1=CC(=Nc2ccc(O[C@H]3O[C@H](CO)[C@@H](O[C@H]4O[C@H](CO)[C@@H](O[C@H]5O[C@H](CO)[C@@H](O)[C@H](O)[C@H]5O)[C@H](O)[C@H]4O)[C@H](O)[C@H]3O)cc2)C=C(C)C1=O [2,6-Dimethyl-indophenylα-maltotriosid, reference compound]
With 150 mmol/l NaN₃ instead of KSCN, MES buffer pH 6,0, 37°C, substrate 4,44 mmol/l, 578 nm
  HPA [ΔE/min]: 0* ΔE/min

## O=C1C(Cl)=CC(=Nc2ccc(O[C@H]3O[C@H](CO)[C@@H](O[C@H]4O[C@H](CO)[C@@H](O[C@H]5O[C@H](CO)[C@@H](O)[C@H](O)[C@H]5O)[C@H](O)[C@H]4O)[C@H](O)[C@H]3O)c(Cl)c2)C=C1Cl [Beispiel 1, 2',2,6-Trichlor-indophenyl-α-maltotriosid]
[1]
  400 mMol/l KSCN HPA [ΔE/min]: 0,063 ΔE/min
In words, in the absence of auxiliary enzymes
  Spaltung durch α-Amylase als direktes Substrat: hervorragend durch α-Amylase in Abwesenheit von Hilfsenzymen spaltbar
Analogous to Beispiel 2 (pH 6,0, 37°C), 645 nm
  400 mmol/l KSCN HPA relativer Wert [ΔE/min]: 1 ΔE/min

## CC1=CC(=Nc2ccc(O[C@H]3O[C@H](CO)[C@@H](O[C@H]4O[C@H](CO)[C@@H](O[C@H]5O[C@H](CO)[C@@H](O)[C@H](O)[C@H]5O)[C@H](O)[C@H]4O)[C@H](O)[C@H]3O)c(Cl)c2)C=CC1=O [Beispiel 4, 2'-Chlor-2-methyl-indophenyl-α-maltotriosid]
[2]
  400 mmol/l KSCN HPA relativer Wert [ΔE/min]: 0,35* ΔE/min

## CC1=CC(=Nc2ccc(O[C@H]3O[C@H](CO)[C@@H](O[C@H]4O[C@H](CO)[C@@H](O[C@H]5O[C@H](CO)[C@@H](O)[C@H](O)[C@H]5O)[C@H](O)[C@H]4O)[C@H](O)[C@H]3O)c(Cl)c2)C=C(C)C1=O [Beispiel 5, 2'-Chlor-2,6-dimethyl-indophenyl-α-maltotriosid]
[2]
  400 mmol/l KSCN HPA relativer Wert [ΔE/min]: 0,27* ΔE/min
